# Patent US11891387B2, “Monoacylglycerol lipase modulators” (Janssen Pharmaceutica NV, priority 2020, dated 2024)
# Biological target: human MGL from HeLa cells (Homo sapiens (Human), UniProt Q99685)
# Experiment: MGL in vitro activity assay: cleavage of [glycerol-1,3-3H]-oleyl glycerol, activated carbon filtration
# Assay type: biochemical
# Conditions: 300 nM [Glycerol-1,3-3H]-oleyl glycerol, endogenously expressed MGL from HeLa cells, one hour incubation
# In short: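 Endogenous human MGL from HeLa cells or homogenates was incubated with compound and 300 nM [glycerol-1,3-3H]-oleyl glycerol for one hour. Released [3H]-glycerol passing an activated carbon filter was counted as the measure of activity. Screening used 10 μM compound, with IC50 top concentration set empirically.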
# Chain of human MGL from HeLa cells (Q99685 whole entry): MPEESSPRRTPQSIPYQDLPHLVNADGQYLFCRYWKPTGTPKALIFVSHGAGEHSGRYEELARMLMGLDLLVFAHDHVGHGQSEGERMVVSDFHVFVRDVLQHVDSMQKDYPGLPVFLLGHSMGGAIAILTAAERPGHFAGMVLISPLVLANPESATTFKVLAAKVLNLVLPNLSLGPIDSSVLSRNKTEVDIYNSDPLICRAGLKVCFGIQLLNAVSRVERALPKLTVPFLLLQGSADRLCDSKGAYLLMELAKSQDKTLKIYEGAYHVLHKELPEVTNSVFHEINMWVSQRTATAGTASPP
row,Compound,IC50 [nM]
1,"COc1nccc(C(=O)N2CCc3c(nn(C)c3-c3cnn(C)c3C(F)(F)F)[C@@H]2C)c1C [Example 60, (S)-(2,7-Dimethyl-3-(1-methyl-5-(trifluoromethyl)-1H-pyrazol-4-yl)-2,4,5,7-tetrahydro-6H-pyrazolo[3,4-c]pyridin-6-yl)(2-methoxy-3-methylpyridin-4-yl)methanone]",4250
2,"Cc1ccc2c(C)c(C(=O)N3CCc4c(nn(C)c4-c4cc(C(F)(F)F)nn4C)[C@@H]3C)ccc2n1 [Example 92, (S)-(2,7-Dimethyl-3-(1-methyl-3-(trifluoromethyl)-1H-pyrazol-5-yl)-2,4,5,7-tetrahydro-6H-pyrazolo[3,4-c]pyridin-6-yl)(2,5-dimethylquinolin-6-yl)methanone]",380
3,"Cc1cc(C(=O)N2CCc3c(nn(C)c3-c3cc(C(F)(F)F)nn3C)[C@@H]2C)cc2scnc12 [Example 135, (S)-(2,7-Dimethyl-3-(1-methyl-3-(trifluoromethyl)-1H-pyrazol-5-yl)-2,4,5,7-tetrahydro-6H-pyrazolo[3,4-c]pyridin-6-yl)(4-methylbenzo[d]thiazol-6-yl)methanone]",22
4,"Cc1cc(C(=O)N2CCc3c(nn(C)c3-c3cnn(C)c3C(F)(F)F)[C@@H]2C)c2cc(F)ccc2n1 [Example 34, (S)-(2,7-Dimethyl-3-(1-methyl-5-(trifluoromethyl)-1H-pyrazol-4-yl)-2,4,5,7-tetrahydro-6H-pyrazolo[3,4-c]pyridin-6-yl)(6-fluoro-2-methylquinolin-4-yl)methanone]",2190
5,"C[C@H]1c2nn(C)c(-c3cc(C(F)(F)F)nn3C)c2CCN1C(=O)c1ccc(F)c2c1cnn2C [Example 21, (S)-(2,7-Dimethyl-3-(1-methyl-3-(trifluoromethyl)-1H-pyrazol-5-yl)-2,4,5,7-tetrahydro-6H-pyrazolo[3,4-c]pyridin-6-yl)(7-fluoro-1-methyl-1H-indazol-4-yl)methanone]",5.6
6,"COc1cc(C)nc2ccc(C(=O)N3CCc4c(nn(C)c4-c4cc(C(F)(F)F)nn4C)[C@@H]3C)cc12 [Example 95, (S)-(2,7-Dimethyl-3-(1-methyl-3-(trifluoromethyl)-1H-pyrazol-5-yl)-2,4,5,7-tetrahydro-6H-pyrazolo[3,4-c]pyridin-6-yl)(4-methoxy-2-methylquinolin-6-yl)methanone]",10000
7,"C[C@H]1c2nn(C)c(-c3cc(C(F)(F)F)nn3C)c2CCN1C(=O)c1ccnc2c1ccn2C [Example 46, (S)-(2,7-Dimethyl-3-(1-methyl-3-(trifluoromethyl)-1H-pyrazol-5-yl)-2,4,5,7-tetrahydro-6H-pyrazolo[3,4-c]pyridin-6-yl)(1-methyl-1H-pyrrolo[2,3-b]pyridin-4-yl)methanone]",5.7
8,"C[C@H]1c2nn(C)c(-c3cc(C(F)(F)F)nn3C)c2CCN1C(=O)c1ccc2ncccc2c1 [Example 65, (S)-(2,7-Dimethyl-3-(1-methyl-3-(trifluoromethyl)-1H-pyrazol-5-yl)-2,4,5,7-tetrahydro-6H-pyrazolo[3,4-c]pyridin-6-yl)(quinolin-6-yl)methanone]",39
9,"C[C@H]1c2nn(C)c(-c3cc(C(F)(F)F)n(C)n3)c2CCN1C(=O)c1cnn2cccc(F)c12 [Example 19, (S)-(2,7-Dimethyl-3-(1-methyl-5-(trifluoromethyl)-1H-pyrazol-3-yl)-2,4,5,7-tetrahydro-6H-pyrazolo[3,4-c]pyridin-6-yl)(4-fluoropyrazolo[1,5-a]pyridin-3-yl)methanone]",19
10,"COc1nccc(C(=O)N2CCc3c(nn(C)c3-c3cc(C(F)(F)F)n(C)n3)[C@@H]2C)c1C [Example 121, (S)-(2,7-Dimethyl-3-(1-methyl-5-(trifluoromethyl)-1H-pyrazol-3-yl)-2,4,5,7-tetrahydro-6H-pyrazolo[3,4-c]pyridin-6-yl)(2-methoxy-3-methylpyridin-4-yl)methanone]",83
11,"C[C@H]1c2nn(C)c(-c3cc(C(F)(F)F)n(C)n3)c2CCN1C(=O)c1ccnc2c1cnn2C [Example 118, (S)-(2,7-Dimethyl-3-(1-methyl-5-(trifluoromethyl)-1H-pyrazol-3-yl)-2,4,5,7-tetrahydro-6H-pyrazolo[3,4-c]pyridin-6-yl)(1-methyl-1H-pyrazolo[3,4-b]pyridin-4-yl)methanone]",47
12,"COc1cccc(C(=O)N2CCc3c(nn(C)c3-c3cc(C(F)(F)F)nn3C)[C@@H]2C)c1C [Example 36, (S)-(2,7-Dimethyl-3-(1-methyl-3-(trifluoromethyl)-1H-pyrazol-5-yl)-2,4,5,7-tetrahydro-6H-pyrazolo[3,4-c]pyridin-6-yl)(3-methoxy-2-methylphenyl)methanone]",23
13,"COc1cc(C)ccc1C(=O)N1CCc2c(nn(C)c2-c2cc(C(F)(F)F)nn2C)[C@@H]1C [Example 41, (S)-(2,7-Dimethyl-3-(1-methyl-3-(trifluoromethyl)-1H-pyrazol-5-yl)-2,4,5,7-tetrahydro-6H-pyrazolo[3,4-c]pyridin-6-yl)(2-methoxy-4-methylphenyl)methanone]",62
14,"COc1cccc(C(=O)N2[C@@H]3CCC[C@H]2c2nn(C)c(-c4cc(C(F)(F)F)n(C)n4)c2C3)c1C [Example 79, (3-Methoxy-2-methylphenyl)((5R,9S)-2-methyl-3-(1-methyl-5-(trifluoromethyl)-1H-pyrazol-3-yl)-4,5,6,7,8,9-hexahydro-2H-5,9-epiminocycloocta[c]pyrazol-10-yl)methanone]",16
15,"COc1cccc(C(=O)N2CCc3c(nn(C)c3-c3cc(C(F)(F)F)n(C)n3)[C@@H]2C)c1Cl [Example 48, (S)-(2-Chloro-3-methoxyphenyl)(2,7-dimethyl-3-(1-methyl-5-(trifluoromethyl)-1H-pyrazol-3-yl)-2,4,5,7-tetrahydro-6H-pyrazolo[3,4-c]pyridin-6-yl)methanone]",19
16,"CCn1ccc(-c2c3c(nn2C)[C@H](C)N(C(=O)c2ccc4ncccc4c2)CC3)n1 [Example 66, (S)-(3-(1-Ethyl-1H-pyrazol-3-yl)-2,7-dimethyl-2,4,5,7-tetrahydro-6H-pyrazolo[3,4-c]pyridin-6-yl)(quinolin-6-yl)methanone]",4000
17,"Cc1nc2cc(F)ccc2cc1C(=O)N1CCc2c(nn(C)c2-c2cc(C(F)(F)F)nn2C)[C@@H]1C [Example 24, (S)-(2,7-Dimethyl-3-(1-methyl-3-(trifluoromethyl)-1H-pyrazol-5-yl)-2,4,5,7-tetrahydro-6H-pyrazolo[3,4-c]pyridin-6-yl)(7-fluoro-2-methylquinolin-3-yl)methanone]",1760
18,"Cc1nc2ccccc2cc1C(=O)N1CCc2c(nn(C)c2-c2cc(C(F)(F)F)nn2C)[C@@H]1C [Example 13, (S)-(2,7-Dimethyl-3-(1-methyl-3-(trifluoromethyl)-1H-pyrazol-5-yl)-2,4,5,7-tetrahydro-6H-pyrazolo[3,4-c]pyridin-6-yl)(2-methylquinolin-3-yl)methanone]",220
19,"COc1cc(C(=O)N2CCc3c(nn(C)c3-c3cc(C(F)(F)F)n(C)n3)[C@@H]2C)c2ccccc2n1 [Example 20, (S)-(2,7-Dimethyl-3-(1-methyl-5-(trifluoromethyl)-1H-pyrazol-3-yl)-2,4,5,7-tetrahydro-6H-pyrazolo[3,4-c]pyridin-6-yl)(2-methoxyquinolin-4-yl)methanone]",8.2
